The record followed here is US20220133702A1, “CYSTIC FIBROSIS TRANSMEMBRANE CONDUCTANCE REGULATOR MODULATORS FOR TREATING AUTOSOMAL DOMINANT POLYCYSTIC KIDNEY DISEASE” (The Johns Hopkins University, priority 2020, published 2022).

For one experiment, the system named is PC2 in PN cells. The experiment in a line: Western blot of endogenous PC2. Format: cell-based, mouse. As for the experimental part:
FIG. 6A and FIG. 6B show PC2 expression is unchanged by VX-809. (FIG. 6A) Western blot showing expression of PC2 in treated or control cells. (FIG. 6B) Columns represent the means±SEM of the PC2 expression. The data were analyzed by non-parametric t-test. The experiment was repeated six (control) or seven times;
PC2 is a 968-amino acid protein with an approximate molecular weight of 100 kDa in its monomeric form To determine whether VX-809 affects PC2 protein expression, western blot experiments were conducted on PN cells to determine the resting levels of endogenous PC2. The results indicated (FIG. 6) that VX-809 has no effect on PC2 expression.
(In western blotting, separated proteins are transferred to a membrane and probed.)

The test system of a further experiment is cAMP in PN cells. Kind of experiment: Cyclic AMP enzyme immunoassay in cells. In kind it is cell-based, mouse. As for the experimental part:
FIG. 4A, FIG. 4B, FIG. 4C, FIG. 4D, and FIG. 4E show (FIG. 4A-FIG. 4B) cAMP levels are reduced by VX-809. (FIG. 4A) cAMP levels in mouse tissue were reduced by VX-809. The kidney samples (n=6) analyzed were taken from those depicted in FIG. 1. (FIG. 4B) Confluent PN and PH cells were treated with VX-809 (10 μM) or DMSO for 16 hand then treated with forskolin (100 μM) for 30 min before the cells were harvested for the assay. Columns represent means±SEM. Statistical analysis was performed using a two-tailed Student's t-test. Each set of data is from three individual wells; Note that resting cAMP is greater in PN vs PH cells as previously shown (25). Also note that forskolin caused a large increase in cAMP. A smaller increase occurred with IBMX. However, the increase induced by forskolin alone was similar to that by IBMX plus forskolin. […] (FIG. 4C, FIG. 4D, and FIG. 4E) Adenylyl cyclase expression. (FIG. 4C) Western blot showing the expression of adenylyl cyclase (AC) 6 and AC3 in treated and control PN cells. (FIG. 4D-FIG. 4E) Columns represent means±SEM of the AC3 and AC6 expression. The data were analyzed by non-parametric t-test. The experiment was repeated four times. For all graphs, *P<0.05, **P<0.01, and ***P<0.001;
It has been shown previously in both animal and cell culture models of ADPKD that cells lacking functional PC1 have elevated cAMP levels when compared to normal. To assess the effect of CFTR correctors, cAMP activity was measured in PC1 conditional knockout mouse kidneys and in PN cells that were either left untreated or treated with VX-809. […] Cells were treated with forskolin, which increased cAMP levels drastically (FIG. 4B). It should be noted that VX-809 reduced the forskolin-induced increase in cAMP, indicating a direct action of VX-809 on adenylyl cyclase activity. […] Treating PN cells with forskolin or IBMX (FIG. 4B) increased the cAMP activity by approximately 10-fold.
Cyclic AMP assay. Confluent cells were treated with VX-809 (10 μM) or DMSO for 16 h before being harvested for assay. Cyclic AMP levels were measured with a direct cAMP Enzyme Immunoassay Kit (Sigma, #CA200) according to the manufacturer's protocol. The results are expressed as pmole/ml. Statistical analysis was performed using a two-tailed Student's t-test.

The next experiment relates to cAMP. The experiment in a line: cAMP level in mouse kidney tissue. Particulars: PC1 conditional knockout mouse kidneys, VX-809-treated vs untreated. In kind it is in vivo. As for the experimental part:
FIG. 4A, FIG. 4B, FIG. 4C, FIG. 4D, and FIG. 4E show (FIG. 4A-FIG. 4B) cAMP levels are reduced by VX-809. (FIG. 4A) cAMP levels in mouse tissue were reduced by VX-809. The kidney samples (n=6) analyzed were taken from those depicted in FIG. 1. (FIG. 4B) Confluent PN and PH cells were treated with VX-809 (10 μM) or DMSO for 16 hand then treated with forskolin (100 μM) for 30 min before the cells were harvested for the assay. Columns represent means±SEM. Statistical analysis was performed using a two-tailed Student's t-test. Each set of data is from three individual wells; Note that resting cAMP is greater in PN vs PH cells as previously shown (25). Also note that forskolin caused a large increase in cAMP. A smaller increase occurred with IBMX. […] The data were analyzed by non-parametric t-test. […]
It has been shown previously in both animal and cell culture models of ADPKD that cells lacking functional PC1 have elevated cAMP levels when compared to normal. To assess the effect of CFTR correctors, cAMP activity was measured in PC1 conditional knockout mouse kidneys and in PN cells that were either left untreated or treated with VX-809. […]
Cyclic AMP assay. […] Cyclic AMP levels were measured with a direct cAMP Enzyme Immunoassay Kit (Sigma, #CA200) according to the manufacturer's protocol. The results are expressed as pmole/ml. […]
Background: cAMP levels reflect the balance of adenylyl cyclase and phosphodiesterase activity.

Experiment [1] deals with PC2 in Pkd1^fl/fl; Pax8^rtTA; TetO-cre mice. The experiment in a line: Immunoblot of PC2 protein in kidney tissue, PC1-null model. Format: in vivo, mouse. Particulars: doxycycline plus VX-809. As for the experimental part: The levels of PC2 protein were analyzed in two mouse models of ADPKD: Pkd1^fl/fl; Pax8^rtTA; TetO-cre, which is PC1 null, and the Pkd1^R3277C/R3277C (pkd1^RC/RC) which has a missense mutation in PC1. Pkd1^RC/RC mice develop a consistent, slowly progressing polycystic kidney disease. Pkd1^RC/RC mice were treated daily with VX-809, beginning at one month, and euthanized at 6 months.
Mice were treated without doxycycline (ND), with doxycycline plus DMSO (D), or with doxycycline plus VX809 (D+VX809), as indicated. Three mice were analyzed for each treatment.
In the Pkd1^fl/fl mice, doxycycline-induced cyst formation increases PC2 protein.

A further experiment deals with GADD153. The experiment in a line: GADD153 immunostaining of kidney sections. Format: in vivo. Particulars: PN21 mouse kidney sections, vs DMSO. The text has this:
FIG. 12A, FIG. 12B, and FIG. 12C show GADD153 expression in kidneys of Pkd1fllfl; Pax8^rtTA; TetO-cre mice. Immunofluorescence images representing the GADD expression (green) in DMSO (FIG. 12A) or VX-809 (FIG. 12B) treated PN21 Pkd1^fl/fl mouse. Columns (FIG. 12C) represent % area of GADD immunopositive (green) cells in DMSO or VX-809 treated PN21 Pkd1^fl/fl mouse kidney sections. Data are expressed as mean±1 SEM of DMSO (vehicle)-treated (n=4) and VX-809-treated (n=4) mice. Statistical analysis was performed using a 2-tailed Student t-test. DMSO, dimethyl sulfoxide. Kidneys were fixed in 4% paraformaldehyde as described (62). Used here was the GADD153 antibody (Sc-7351), goat antirabbit (A21429, AlexaFluor 555, 1:1,000; Life Technologies, Carlsbad, Calif.) and DAPI (H-1200; Vector Laboratories, Burlingame, Calif.). Pictures were acquired with a Zeiss microscope equipped a 20× objective. Cells positive for GADD153 and the total number of cells were measured with ImageJ. The results are expressed as percentages;
Given that VX-809 alters an ensemble of Hsps, it was evaluated whether VX-809 alters proteins associated with ER stress. To address this question, the levels of three ER stress-associated proteins were measured, 78-kDa glucose-regulated protein (GRP78), ER oxidoreductin 1 (Ero1) and DNA damage-inducible protein 3 (GADD153), also known as C/EBP homologous protein (CHOP) (37). […]

For `Cc1ccc(NC(=O)C2(c3ccc4c(c3)OC(F)(F)O4)CC2)nc1-c1cccc(C(=O)O)c1` [VX-809, lumacaftor], the PC2 expression result in the experiment with PC2 in PN cells was “no effect”. Besides, the “resting cAMP levels” value with cAMP in PN cells (10 μM, 16 h, PN cells, no forskolin) is given as “significantly decreased”. Further, in the experiment on cAMP in PN cells (10 μM, 16 h, then forskolin 100 μM 30 min), the “forskolin-induced increase in cAMP” value was “reduced”. Also, in the experiment on cAMP in PN cells (forskolin in combination with IBMX (data bars 5 and 9, FIG. 4B)), the “forskolin- or IBMX-induced increases in adenylyl cyclase activity” value was “did not affect”. Also, the phosphodiesterase activity result in the experiment with cAMP in PN cells (inferred from forskolin/IBMX experiment) was “does not affect”. Further, in the experiment on cAMP, the “cAMP levels in kidneys” value is “significantly decreased”. In experiment [1], the “PC2 protein expression (normalized to vinculin)” value is “restores PC2 expression to near-normal values”. Further, the GADD153 immunostaining result with GADD153 is “strong reduction”.
